From patent US5637619A, “Antitumor 2-aminocarbonyl-1, 2-bis(methylsulfonyl)-1-(substituted)hydrazines” (Yale University, priority 1995, dated 1997)

Experiments:
L1210 leukemia = L1210 leukemia survival time in mice (ip implanted); format: in vivo, mice (CD2F1); conditions: for %T/C (average survival time treated/control × 100): cures not included
Method: (§1) Leukemia L1210 cells were obtained from the Frederick Cancer Research Facility, Division of Cancer Treatment Tumor Repository of the National Cancer Institute, and were maintained by serial passage in tissue culture. Every 8 weeks, tumor cells were injected intraperitoneally into five donor CD2 F1 mice 8- to 10- weeks of age and were allowed to grow for 7 days. The peritoneal fluid was withdrawn and the suspension was centrifuged for 5 min at 1600 g. The supernatant was decanted and 10^5 cells/mL were seeded into 10 mL of RPMI 1640 medium supplemented with 10% fetal bovine serum and 1% L-glutamine, and once again maintained in culture. To assay for antineoplastic activity, 0.1 mL of the cell suspension containing 10^5 L1210 leukemia cells was injected ip into each recipient mouse. Test compounds were administered over a wide range of dosage levels, beginning 24 h after tumor implantation, and continued once daily for 6 consecutive days. All drugs were administered ip as a solution in 100% dimethylsulfoxide (DMSO), in a volume not exceeding 0.025 mL. […] Mice were weighed during the course of the experiments, and the percentage change in body weight from onset to termination of therapy was used as an indication of drug toxicity. Determination of the sensitivity of neoplasms to these agents was based upon the prolongation of survival time afforded by the drug treatments.
(§2) ^a Administered ip once daily for six consecutive days, beginning 24 hours after tumor implantation, with 5-10 mice being used per group. ^b Average percent change in body weight from onset to termination of therapy. ^c % T/C=average survival time of treated/control mice×100; cures (>60-day survivors) are listed separately and are not included in this calculation.

[1] = Body weight change / toxicity in L1210-bearing mice; format: in vivo, mice (CD2F1); conditions: L1210-bearing mice
Method: as §1, §2

[2] = system: M5076 reticulum cell sarcoma; assay: M5076 reticulum cell sarcoma, sc implanted; format: in vivo, C57BL/6 mice; conditions: 16 mg/kg per injection, iv every fourth day × 3
Method: (§3) The M5076 reticulum cell sarcoma was passaged biweekly by sc transfer of tumor fragments into C57BL/6 mice, and the M109 lung carcinoma was similarly passaged in BALB/c mice. The LX-1 human lung carcinoma was passaged sc every two to three weeks in BALB/c-background athymic (nu/nu) mice. For use in these systems, compound III was dissolved in: (a) 100% DMSO and administered by iv injection in a fixed volume of 10 microliters; or (b) DMSO diluted with saline to a final concentration of 10% DMSO and administered iv in a volume of 0.01 milliliter/g of body weight. […] Mitomycin C and cyclophosphamide were dissolved and administered in saline. BCNU and MeCCNU were dissolved in ethanol and diluted 1:9 (v/v) with water prior to administration.
(§4) Five mice per group were employed in experiments with the B16F10 melanoma, and 8 mice per group with the M5076 sarcoma, the M109 carcinoma and the LX-1 carcinoma. A minimum of two dose levels per compound were included in each evaluation and drug therapy was initiated 24 h after tumor implantation for the M5076 sarcoma and M109 carcinoma. In the LX-1 experiment, tumor bearing mice were selected and sorted into treatment and control groups on day 6 post-tumor implant such that all tumor weights ranged from 50-100 mg and median tumor weights per group were reasonably similar. Therapeutic results are presented in terms of: (a) increases in lifespan reflected by the relative median survival time (MST) of treated versus control groups (i.e., %T/C values), and by long-term survivors, and (b) primary tumor growth inhibition (i.e., T-C values) determined by calculating the relative median times for treated (T) and control untreated (C) mice to grow tumors of a 0.5 g size for the LX-1 carcinoma or a 1 g size for the murine neoplasms. Tumor weights were interchangeable with tumor size on the basis of 1 mm^3 =1 mg. […] The activity criterion for tumor inhibition was a delay in tumor growth consistent with one log10 cell kill (LCK). The absolute T-C value needed to attain this level of efficacy varied from experiment to experiment and depended upon the tumor volume doubling time of the control mice in each study. Treated mice dying prior to day 10 in the ip M109 experiment, or dying before their tumors achieved 0.5 g for the LX-1 carcinoma or 1 g in size for all other sc tumor models, were considered to have died from drug toxicity. Groups of mice with more than one death due to drug toxicity were not used in the evaluation of antitumor efficacy. Statistical evaluations of data were performed using Gehan's generalized Wilcoxan test (Gehan, Biometrika, 1965, 52, 203-233).
Compound III was also evaluated against the M5076 reticulum cell sarcoma implanted sc. When administered iv at a level of 48 mg/kg per injection in 100% DMSO every other day for five days, compound III cured 6 out of 8 mice and consequently, no median time (T-C value) to reach 1 gram size tumors was expressed for this group. Tumor growth in mice receiving only 100% DMSO was indistinguishable from that of untreated control animals. 1-(2-Chloroethyl)-3-(4-methylcyclohexyl)-1-nitrosourea (MeCCNU) and BCNU were included in this experiment for comparison. The former achieved a maximum %T/C of 128 and a delay in tumor growth of 33.5 days at 16 mg/kg per injection administered iv every fourth day for three total injections, while BCNU, administered iv on the same treatment schedule, produced a %T/C in excess of 157, with 2 out of 8 cures, and a T-C of >62 days (data not shown).

M109 lung carcinoma = assay: M109 lung carcinoma, sc implanted; format: in vivo, BALB/c mice
Method: as §3, §4
Compound III was also evaluated against the M109 lung carcinoma implanted subcutaneously (sc). In the initial test using this model, a dose of 50 mg/kg per injection of this compound was administered intravenously (iv) in 10% DMSO in saline every fourth day for a total of three injections. […] Mitomycin C, used as a reference drug, produced a maximum %T/C of 103 and a delay in tumor growth of 10 days (data not shown). A subsequent evaluation of compound III was performed using four different doses on a slightly different schedule, i.e., 24, 32, 48 and 64 mg/kg administered every third day for four total injections, and two vehicles, 10% DMSO in saline and 100% DMSO. […] Cyclophosphamide and mitomycin C were included as reference drugs in the last experiment. The former compound produced a maximum %T/C of 143 and a delay in tumor growth of 8.8 days, while mitomycin C produced a maximum %T/C of 134 and a T-C value of 9.3 days (data not shown). As reported earlier, compound X achieved a maximum %T/C of 136 and a maximum T-C value of 14.5 days against this tumor (Shyam, et al., J. Med. Chem., 1993, 36, 3496).

[3] = reference drug in initial test (experiment a)
[4] = reference drugs in last experiment (experiment b)

Compound	%T/C (average survival time treated/control × 100) (L1210 leukemia; 5 mg/kg ip once daily × 6) [%]	% 60 Day Survivors (cures) (L1210 leukemia; 10 mg/kg ip once daily × 6) [%]	%T/C (average survival time treated/control × 100) (L1210 leukemia; 10 mg/kg ip once daily × 6) [%]	Av. Wt. Change % ([1]; 5 mg/kg ip once daily × 6) [%]	Av. Wt. Change % ([1]; 10 mg/kg ip once daily × 6) [%]	Av. Wt. Change % ([1]; 15 mg/kg ip once daily × 6) [%]	%T/C (average survival time treated/control × 100) (L1210 leukemia; 15 mg/kg ip once daily × 6) [%]	%T/C (average survival time treated/control × 100) (L1210 leukemia; 20 mg/kg ip once daily × 6) [%]	% 60 Day Survivors (cures) (L1210 leukemia; 50 mg/kg ip once daily × 6) [%]	Av. Wt. Change % ([1]; 20 mg/kg ip once daily × 6) [%]	Av. Wt. Change % ([1]; 25 mg/kg ip once daily × 6) [%]	Av. Wt. Change % ([1]; 50 mg/kg ip once daily × 6) [%]	Av. Wt. Change % ([1]; 100 mg/kg ip once daily × 6) [%]	also measured
C=CCNC(=O)N(N(CCCl)S(C)(=O)=O)S(C)(=O)=O [Compound V, 2-Allylaminocarbonyl-1,2-bis(methylsulfonyl)-1-(2-chloroethyl)hydrazine]	184	40	394	-1.6	-2.1	-2.9	–	–	–	–	–	–	–	% 60 Day Survivors (cures) (L1210 leukemia; 5 mg/kg ip once daily × 6): 20%; % 60 Day Survivors (cures) (L1210 leukemia; 15 mg/kg ip once daily × 6): 100%; antileukemic activity / therapeutic potential (in words) (L1210 leukemia; qualitative, L1210 leukemia in mice): highly efficacious against this tumor
CS(=O)(=O)N(CCCl)N(C(=O)NCCCCl)S(C)(=O)=O [Compound VI, 1,2-Bis(methylsulfonyl)-1-(2-chloroethyl)-2-(3-chloropropyl)aminocarbonylhydrazine]	111	–	187	-2.8	-5.6	-8.8	192	–	–	–	–	–	–	% 60 Day Survivors (cures) (L1210 leukemia; 15 mg/kg ip once daily × 6): 20%; cure rate (in words) (L1210 leukemia; highest dosage level examined (15 mg/kg × 6)): partial cure rate of tumor-bearing mice
CCOC(=O)CNC(=O)N(N(CCCl)S(C)(=O)=O)S(C)(=O)=O [Compound VII, 1,2-Bis(methylsulfonyl)-1-(2-chloroethyl)-2-(ethoxycarbonylmethyl)aminocarbonylhydrazine]	151	20	202	-1.5	-1.4	-0.5	202	191	80	-3.7	-0.5	-2.5	-4.0	% 60 Day Survivors (cures) (L1210 leukemia; 20 mg/kg ip once daily × 6): 20%; % 60 Day Survivors (cures) (L1210 leukemia; 25 mg/kg ip once daily × 6): 100%; %T/C (average survival time treated/control × 100) (L1210 leukemia; 50 mg/kg ip once daily × 6): 138%; % 60 Day Survivors (cures) (L1210 leukemia; 75 mg/kg ip once daily × 6): 60%; %T/C (average survival time treated/control × 100) (L1210 leukemia; 75 mg/kg ip once daily × 6): 119%; %T/C (average survival time treated/control × 100) (L1210 leukemia; 100 mg/kg ip once daily × 6): 115%; Av. Wt. Change % ([1]; 75 mg/kg ip once daily × 6): -1.5%
CCOC(=O)C(Cc1ccccc1)NC(=O)N(N(CCCl)S(C)(=O)=O)S(C)(=O)=O (stereo not shown) [Compound IX, 1,2-Bis(methylsulfonyl)-1-(2-chloroethyl)-2-(1-ethoxycarbonyl-2-phenylethyl)aminocarbonylhydrazine]	147	–	165	-2.5	-0.5	-1.9	160	174	60	-1.9	-0.9	-2.0	-2.0	%T/C (average survival time treated/control × 100) (L1210 leukemia; 25 mg/kg ip once daily × 6): 177%; %T/C (average survival time treated/control × 100) (L1210 leukemia; 50 mg/kg ip once daily × 6): 225%; % 60 Day Survivors (cures) (L1210 leukemia; 100 mg/kg ip once daily × 6): 100%; % 60 Day Survivors (cures) (L1210 leukemia; 150 mg/kg ip once daily × 6): 20%; %T/C (average survival time treated/control × 100) (L1210 leukemia; 150 mg/kg ip once daily × 6): 169%; Av. Wt. Change % ([1]; 150 mg/kg ip once daily × 6): -5.0%
CC1CCC(NC(=O)N(CCCl)N=O)CC1 (stereo not shown) [MeCCNU, 1-(2-Chloroethyl)-3-(4-methylcyclohexyl)-1-nitrosourea]	–	–	–	–	–	–	–	–	–	–	–	–	–	delay in tumor growth (T-C) [2]: 33.5 days; maximum %T/C [2]: 128%
CCOC(=O)C(C)NC(=O)N(N(CCCl)S(C)(=O)=O)S(C)(=O)=O (stereo not shown) [Compound VIII, 1,2-Bis(methylsulfonyl)-1-(2-chloroethyl)-2-(1-ethoxycarbonylethyl)aminocarbonylhydrazine]	170	20	178	-2.0	-1.4	-0.5	185	227	100	-1.5	-2.5	-3.3	-2.5	% 60 Day Survivors (cures) (L1210 leukemia; 25 mg/kg ip once daily × 6): 60%; %T/C (average survival time treated/control × 100) (L1210 leukemia; 25 mg/kg ip once daily × 6): 239%; % 60 Day Survivors (cures) (L1210 leukemia; 75 mg/kg ip once daily × 6): 80%; %T/C (average survival time treated/control × 100) (L1210 leukemia; 75 mg/kg ip once daily × 6): 125%; %T/C (average survival time treated/control × 100) (L1210 leukemia; 100 mg/kg ip once daily × 6): 118%; Av. Wt. Change % ([1]; 75 mg/kg ip once daily × 6): -2.5%
CO[C@@]12[C@H](COC(N)=O)C3=C(C(=O)C(C)=C(N)C3=O)N1C[C@@H]1N[C@@H]12 [Mitomycin C, mitomycin C, reference compound]	–	–	–	–	–	–	–	–	–	–	–	–	–	delay in tumor growth (T-C) (M109 lung carcinoma; [3]): 10 days; maximum %T/C (M109 lung carcinoma; [3]): 103%; delay in tumor growth (T-C) (M109 lung carcinoma; [4]): 9.3 days; maximum %T/C (M109 lung carcinoma; [4]): 134%
O=P1(N(CCCl)CCCl)NCCCO1 (stereo not shown) [Cyclophosphamide, cyclophosphamide, reference compound]	–	–	–	–	–	–	–	–	–	–	–	–	–	delay in tumor growth (T-C) (M109 lung carcinoma; [4]): 8.8 days; maximum %T/C (M109 lung carcinoma; [4]): 143%
